For experiment [1], the target named is human GLP-1 receptor (Homo sapiens, UniProt P43220). Put plainly: In vitro functional potency, CRE luciferase reporter, whole BHK cells (hGLP-1R). Type of experiment: cell-based. Set-up: expressed in transfected cells; host or cells: BHK (parent line BHKTS13), clone BHK CRE luc2P hGLP-1R. Conditions: BHK CRE luc2P hGLP-1R cells. In a few lines: (§1)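 BHK CRE luc2P cells stably expressing hGIPR or hGLP-1R were seeded at 5000 cells/well overnight. They were treated 3 h at 37° C with a 12-point, 3.5-fold compound series in buffer with or without HSA, and luciferase luminescence was read. Values come from log(agonist)-response regression, averaging at least two replicates.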

In experiment [2] the target is T1, human GIP receptor (Homo sapiens, UniProt P48546).
T1 construct: expressed in transfected cells; host or cells: BHK (parent line BHKTS13), clone BHK CRE luc2P hGIPR
T1 sequence (P48546 22-466): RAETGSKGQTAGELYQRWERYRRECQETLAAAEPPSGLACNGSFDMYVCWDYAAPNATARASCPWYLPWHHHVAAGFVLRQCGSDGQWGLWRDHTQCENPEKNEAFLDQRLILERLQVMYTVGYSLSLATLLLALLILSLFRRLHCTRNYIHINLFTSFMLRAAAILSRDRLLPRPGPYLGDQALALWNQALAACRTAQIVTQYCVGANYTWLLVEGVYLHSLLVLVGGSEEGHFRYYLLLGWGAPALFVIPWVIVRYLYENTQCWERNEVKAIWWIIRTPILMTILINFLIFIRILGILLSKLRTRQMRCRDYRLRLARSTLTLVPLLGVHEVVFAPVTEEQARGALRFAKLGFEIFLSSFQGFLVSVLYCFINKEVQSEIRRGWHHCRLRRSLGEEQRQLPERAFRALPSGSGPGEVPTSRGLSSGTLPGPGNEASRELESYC
Put plainly: In vitro functional potency, CRE luciferase reporter, whole BHK cells (hGIPR). The conditions noted are these: BHK CRE luc2P hGIPR cells. The format is cell-based. In a few lines: as §1
On the technique in general: In a reporter assay the amount or activity of a reporter protein is the signal.

Like-named read-outs stand apart in the source and are kept apart here. Starred links: 1 amine or outer side, 2 acyl side, 3 side chain; linkers in the order of their positions; H or OH if unused. Non-standard residues stand in square brackets, D forms with d. Residues, ends and D or L forms follow the SMILES beside them. Groups on a side chain read outwards from the residue. *: point of attachment. C20 diacid = O=C(O)CCCCCCCCCCCCCCCCCCC(=O)*; γGlu = O=C(O)[C@H](CCC(=O)[*:2])N[*:1]; εLys = N[C@@H](CCCCN[*:1])C(=O)[*:2]; Aib = CC(C)(N)C(=O)O

Chain of human GLP-1 receptor (P43220 24-463): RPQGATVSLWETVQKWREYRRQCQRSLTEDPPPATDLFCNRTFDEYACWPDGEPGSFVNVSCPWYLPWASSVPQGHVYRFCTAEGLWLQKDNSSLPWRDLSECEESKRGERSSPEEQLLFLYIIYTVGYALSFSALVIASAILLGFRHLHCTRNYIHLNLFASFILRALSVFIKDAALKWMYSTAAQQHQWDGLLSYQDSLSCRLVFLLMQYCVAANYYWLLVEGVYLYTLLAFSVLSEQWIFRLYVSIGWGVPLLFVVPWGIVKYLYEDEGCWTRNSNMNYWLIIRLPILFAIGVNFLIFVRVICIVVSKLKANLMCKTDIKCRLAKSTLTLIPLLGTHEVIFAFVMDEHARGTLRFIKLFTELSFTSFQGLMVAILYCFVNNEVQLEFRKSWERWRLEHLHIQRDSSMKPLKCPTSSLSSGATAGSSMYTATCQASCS

Turning to `CC(C)C[C@H](NC(=O)[C@H](CC(C)C)NC(=O)[C@H](Cc1c[nH]c2ccccc12)NC(=O)[C@H](CC(N)=O)NC(=O)[C@@H](NC(=O)[C@H](Cc1ccccc1)NC(=O)[C@H](CCC(=O)O)NC(=O)[C@H](CCC(N)=O)NC(=O)[C@H](C)NC(=O)[C@H](C)NC(=O)[C@H](CCC(N)=O)NC(=O)[C@H](CCCCNC(=O)[C@@H](N)CCCCNC(=O)[C@@H](N)CCCCNC(=O)CC[C@H](NC(=O)CCCCCCCCCCCCCCCCCCC(=O)O)C(=O)O)NC(=O)[C@H](CCC(=O)O)NC(=O)[C@H](CC(C)C)NC(=O)[C@H](Cc1ccc(O)cc1)NC(=O)[C@H](Cc1ccc(O)cc1)NC(=O)[C@H](CO)NC(=O)[C@H](Cc1ccc(O)cc1)NC(=O)[C@H](CC(=O)O)NC(=O)[C@H](CO)NC(=O)[C@@H](NC(=O)[C@H](Cc1ccccc1)NC(=O)[C@@H](NC(=O)CNC(=O)[C@H](CCC(=O)O)NC(=O)C(C)(C)NC(=O)[C@@H](N)Cc1ccc(O)cc1)[C@@H](C)O)[C@@H](C)O)C(C)C)C(=O)N[C@@H](C)C(=O)NCC(=O)NCC(=O)N1CCC[C@H]1C(=O)N[C@@H](CO)C(=O)N[C@@H](CO)C(=O)NCC(=O)N[C@@H](C)C(=O)N1CCC[C@H]1C(=O)N1CCC[C@H]1C(=O)N1CCC[C@H]1C(=O)N[C@@H](CO)C(N)=O` [Compound 2] (H-Y[Aib]EGTFTSDYSYYLEK([εLys-εLys-γGlu-C20 diacid])QAAQEFVNWLLAGGPSSGAPPPS-NH2), the EC50 in experiment [1] (0% HSA, read-out: hGLP-1R, CRE Luc 0% HSA EC50) worked out at 0.006 nM; in experiment [1] (hGLP-1R, CRE Luc 1% HSA EC50, 1% HSA) it was 0.9 nM; in experiment [2] (0% HSA, read-out: hGIPR, CRE Luc 0% HSA EC50), 0.0038 nM; in experiment [2] (hGIPR, CRE Luc 1% HSA EC50, 1% HSA), 0.275 nM.

What is called EC50 is the midpoint of the concentration-response curve.
